Test results taken from BindingDB's records for doi:10.7270/Q2805129 (Vanderbilt Screening Center For Gpcrs, Ion Channels and …, 2009).

Biological target: T1, Muscarinic acetylcholine receptor M5 (Homo sapiens, UniProt P08912)
T1 sequence (P08912 whole entry): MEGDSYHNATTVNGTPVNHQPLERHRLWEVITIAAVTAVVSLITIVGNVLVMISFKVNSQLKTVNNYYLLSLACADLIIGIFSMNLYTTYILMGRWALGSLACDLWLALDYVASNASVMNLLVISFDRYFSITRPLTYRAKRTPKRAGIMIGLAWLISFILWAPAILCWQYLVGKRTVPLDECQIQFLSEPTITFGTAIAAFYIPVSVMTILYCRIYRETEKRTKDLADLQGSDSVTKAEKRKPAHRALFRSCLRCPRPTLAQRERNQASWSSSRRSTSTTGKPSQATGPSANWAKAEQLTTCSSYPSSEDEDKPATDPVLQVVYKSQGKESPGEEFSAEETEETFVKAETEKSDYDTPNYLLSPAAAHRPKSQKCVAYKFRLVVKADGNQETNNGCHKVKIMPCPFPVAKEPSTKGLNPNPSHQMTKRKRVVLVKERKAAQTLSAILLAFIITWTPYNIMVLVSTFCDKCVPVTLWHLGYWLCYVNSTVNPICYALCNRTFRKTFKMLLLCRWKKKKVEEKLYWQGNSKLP
Test: compound effect on ACh competition at M5, biochemical, [3H]N-methylscopolamine, acetylcholine (AID 2194)

Compound: COc1ccc(CN2C(=O)C(=O)c3cc(OC(F)(F)F)ccc32)cc1 [VU0238429]
- Ki: 159 nM
